{
  "source": "paper PMC6277767",
  "about": "“Broad and Region-Specific Impacts of the Synthetic Cannabinoid CP 55,940 in Adolescent and Adult Female Mouse Brains” (Frontiers in Molecular Neuroscience, 2018)",
  "tested_on": "CD1 female mouse brain lipidome",
  "test": "Brain-region lipid levels (HPLC/MS/MS lipidomics) 2 h after single i.p. 3 mg/kg CP 55,940 vs vehicle",
  "format": "in vivo",
  "design": "N-arachidonoyl phenylalanine level, Mean / N-stearoyl tryptophan level, Mean / N-stearoyl proline level, Mean / N-stearoyl leucine level, Mean / N-stearoyl phenylalanine level, Mean / N-stearoyl serine level, Mean / N-stearoyl methionine level, Mean: unit: moles per gram",
  "conditions": "hippocampus, adult, 3 mg/kg CP 55,940",
  "method": "The Bloomington Institutional Animal Care and Use Committee of Indiana University reviewed and approved the animal procedures. Female mice from the CD1 strain were utilized to match our study examining THC’s effects on the brain lipidome ([Leishman et al., 2018]). Mice were given a single i.p. injection of either 3 mg/kg CP or 1:1:18 cremophor:ethanol:saline vehicle (please refer to the section “3 mg/kg CP Is Relevant for Synthetic Cannabinoid Abuse and Has Stronger Effects on the Female Mouse Brain Lipidome During Adolescence” for a justification of dose and use of female mice). Three different age groups were given injections: PND 35 and PND 50 adolescents, and adult mice (PND 113). At least eight mice in each age group received CP and at least eight received vehicle. Matching the THC study time course ([Leishman et al., 2018]), mice were sacrificed via rapid decapitation 2 h after injection. Brains were immediately removed and flash-frozen in liquid nitrogen, and then stored at -80°C until dissections were performed. Brains were dissected on an ice-cold dissection plate into the following regions: STR, HIPP, CER, THAL, CTX, HYP, MID, and STEM. These abbreviations for these brain areas will be used exclusively when discussing the results generated by these specific dissections. Each dissected area was immediately placed in liquid nitrogen and then stored at -80°C until used for lipid extraction.\nTissue extracts were performed as previously described ([Bradshaw et al., 2006]; [Stuart et al., 2013]; [Raboune et al., 2014]; [Leishman et al., 2016a],[b], [2017], [2018]). First, samples were shock frozen in liquid nitrogen, weighed, and transferred to a centrifuge tube. The mass of the largest sample was multiplied by 50 to determine how many milliliters of HPLC-grade methanol (Fisher, Fair Lawn, NJ, United States) to add. Then, samples were spiked with 500 pmol deuterium-labeled NAGly (d8NAGly; Cayman Chemical, Ann Arbor, MI, United States). Samples were placed on ice in darkness for 2 h then individually homogenized and centrifuged at 19,000 × g for 20 min at 20°C. Supernatants were diluted with HPLC water (purified in house) to make a solution of 75% water, 25% supernatant. Lipids were partially purified on C18 solid phase extraction columns (Agilent, Palo Alto, CA, United States). A series of four elutions with 1.5 mL of 60%, 75%, 85%, and 100% methanol were collected ([Stuart et al., 2013]; [Leishman et al., 2016a],[b], [2018]).\nAs previously described ([Bradshaw et al., 2006]; [Tan et al., 2006]; [Smoum et al., 2010]; [Stuart et al., 2013]; [Tortoriello et al., 2013]; [Raboune et al., 2014]; [Leishman et al., 2016a],[b], [2017], [2018]), samples were analyzed using an Applied Biosystems API 3000 triple quadrupole mass spectrometer with electrospray ionization (Foster City, CA, United States). Using an Agilent XDB-C18 reversed phase analytical column and optimized mobile phase gradients, 20 μL from each elution were chromatographed. Two Shimadzu 10ADvp pumps (Columbia, MD, United States) provided the pressure for gradient elution. Mobile phase A: 20% methanol, 80% water (v/v) and 1 mM ammonium acetate (Sigma, St. Louis, MO, United States). Mobile phase B: 100% methanol, 1 mM ammonium acetate. Every method run began with 0% mobile phase B, reached 100% mobile phase B flowing at 0.2 mL/min, and gradually returned to 0% mobile phase B.\nThis screening library will be referred to as the lipidome when discussing data from this study. HPLC/MS/MS data were analyzed using Analyst software (Applied Biosystems) ([Bradshaw et al., 2006]; [Tan et al., 2006]; [Stuart et al., 2013]; [Tortoriello et al., 2013]; [Raboune et al., 2014]; [Leishman et al., 2016a],[b], [2017], [2018]). Chromatograms (Supplementary Figure 3) were generated by determining the retention time of analytes from the analytical column with a [M-1] or [M+1] parent peak and a fragmentation peak corresponding to the programmed values. […]",
  "data": [
    {"molecule": "CCCCCCC(C)(C)c1ccc([C@@H]2C[C@H](O)CC[C@H]2CCCO)c(O)c1", "note": "[CP 55,940]", "values": [
      {"measurement": "6-ketoPGF1α level, Mean", "value": "2.42E-11"},
      {"measurement": "11-OH-THC level, Mean", "value": "BDL"},
      {"measurement": "11-nor-9-carboxyTHC level, Mean", "value": "BDL"},
      {"measurement": "Arachidonic acid level, Mean", "value": "1.89E-09"},
      {"measurement": "Cannabidiol level, Mean", "value": "BDL"},
      {"measurement": "Linoleic acid level, Mean", "value": "7.37E-10"},
      {"measurement": "N- stearoyl valine level, Mean", "value": "3.95E-14"},
      {"measurement": "N-arachidonoyl GABA level, Mean", "value": "2.86E-11"},
      {"measurement": "N-arachidonoyl GABA: Direction (relative to Veh)", "value": "↓"},
      {"measurement": "N-arachidonoyl GABA: Magnitude (x Veh level)", "value": 0.84, "unit": "x Veh level"},
      {"measurement": "N-arachidonoyl alanine level, Mean", "value": "3.66E-12"},
      {"measurement": "N-arachidonoyl alanine: Direction (relative to Veh)", "value": "↓"},
      {"measurement": "N-arachidonoyl alanine: Magnitude (x Veh level)", "value": 0.76, "unit": "x Veh level"},
      {"measurement": "N-arachidonoyl dopamine level, Mean", "value": "BDL"},
      {"measurement": "N-arachidonoyl ethanolamine level, Mean", "value": "3.15E-11"},
      {"measurement": "N-arachidonoyl glycine level, Mean", "value": "2.03E-12"},
      {"measurement": "N-arachidonoyl glycine: Direction (relative to Veh)", "value": "↓"},
      {"measurement": "N-arachidonoyl glycine: Magnitude (x Veh level)", "value": 0.72, "unit": "x Veh level"},
      {"measurement": "N-arachidonoyl methionine level, Mean", "value": "PISSR"},
      {"measurement": "N-arachidonoyl phenylalanine level, Mean", "value": "1.12E-13"},
      {"measurement": "N-arachidonoyl phenylalanine: Direction (relative to Veh)", "value": "↓"},
      {"measurement": "N-arachidonoyl phenylalanine: Magnitude (x Veh level)", "value": 0.60, "unit": "x Veh level"},
      {"measurement": "N-arachidonoyl proline level, Mean", "value": "BDL"},
      {"measurement": "N-arachidonoyl serine level, Mean", "value": "PISSR"},
      {"measurement": "N-arachidonoyl taurine level, Mean", "value": "2.3E-10"},
      {"measurement": "N-arachidonoyl tryptophan level, Mean", "value": "BDL"},
      {"measurement": "N-arachidonoyl tyrosine level, Mean", "value": "PISSR"},
      {"measurement": "N-docosahexaenoyl GABA level, Mean", "value": "7.15E-12"},
      {"measurement": "N-docosahexaenoyl GABA: Direction (relative to Veh)", "value": "↓"},
      {"measurement": "N-docosahexaenoyl GABA: Magnitude (x Veh level)", "value": 0.84, "unit": "x Veh level"},
      {"measurement": "N-docosahexaenoyl alanine level, Mean", "value": "PISSR"},
      {"measurement": "N-docosahexaenoyl ethanolamine level, Mean", "value": "2.18E-11"},
      {"measurement": "N-docosahexaenoyl glycine level, Mean", "value": "1.21E-13"},
      {"measurement": "N-docosahexaenoyl leucine level, Mean", "value": "PISSR"},
      {"measurement": "N-docosahexaenoyl methionine level, Mean", "value": "BDL"},
      {"measurement": "N-docosahexaenoyl phenylalanine level, Mean", "value": "PISSR"},
      {"measurement": "N-docosahexaenoyl proline level, Mean", "value": "BDL"},
      {"measurement": "N-docosahexaenoyl serine level, Mean", "value": "PISSR"},
      {"measurement": "N-docosahexaenoyl tryptophan level, Mean", "value": "BDL"},
      {"measurement": "N-docosahexaenoyl tyrosine level, Mean", "value": "PISSR"},
      {"measurement": "N-docosahexaenoyl valine level, Mean", "value": "PISSR"},
      {"measurement": "N-linoleoyl GABA level, Mean", "value": "PISSR"},
      {"measurement": "N-linoleoyl alanine level, Mean", "value": "3.37E-13"},
      {"measurement": "N-linoleoyl ethanolamine level, Mean", "value": "2.58E-11"},
      {"measurement": "N-linoleoyl glycine level, Mean", "value": "1.16E-13"},
      {"measurement": "N-linoleoyl leucine level, Mean", "value": "PISSR"},
      {"measurement": "N-linoleoyl methionine level, Mean", "value": "BDL"},
      {"measurement": "N-linoleoyl phenylalanine level, Mean", "value": "PISSR"},
      {"measurement": "N-linoleoyl proline level, Mean", "value": "BDL"},
      {"measurement": "N-linoleoyl serine level, Mean", "value": "7.17E-11"},
      {"measurement": "N-linoleoyl tryptophan level, Mean", "value": "BDL"},
      {"measurement": "N-linoleoyl tyrosine level, Mean", "value": "PISSR"},
      {"measurement": "N-linoleoyl valine level, Mean", "value": "PISSR"},
      {"measurement": "N-nervonoyl valine level, Mean", "value": "BDL"},
      {"measurement": "N-oleoyl GABA level, Mean", "value": "1.55E-11"},
      {"measurement": "N-oleoyl GABA: Direction (relative to Veh)", "value": "↓"},
      {"measurement": "N-oleoyl GABA: Magnitude (x Veh level)", "value": 0.88, "unit": "x Veh level"},
      {"measurement": "N-oleoyl alanine level, Mean", "value": "3.73E-12"},
      {"measurement": "N-oleoyl dopamine level, Mean", "value": "BDL"},
      {"measurement": "N-oleoyl ethanolamine level, Mean", "value": "1.06E-10"},
      {"measurement": "N-oleoyl glycine level, Mean", "value": "5.21E-13"},
      {"measurement": "N-oleoyl leucine level, Mean", "value": "1.44E-12"},
      {"measurement": "N-oleoyl methionine level, Mean", "value": "PISSR"},
      {"measurement": "N-oleoyl phenylalanine level, Mean", "value": "3.98E-13"},
      {"measurement": "N-oleoyl phenylalanine: Direction (relative to Veh)", "value": "↓"},
      {"measurement": "N-oleoyl phenylalanine: Magnitude (x Veh level)", "value": 0.70, "unit": "x Veh level"},
      {"measurement": "N-oleoyl proline level, Mean", "value": "BDL"},
      {"measurement": "N-oleoyl serine level, Mean", "value": "3.49E-10"},
      {"measurement": "N-oleoyl tryptophan level, Mean", "value": "BDL"},
      {"measurement": "N-oleoyl tyrosine level, Mean", "value": "4.1E-13"},
      {"measurement": "N-oleoyl valine level, Mean", "value": "PISSR"},
      {"measurement": "N-palmitoyl GABA level, Mean", "value": "2.14E-11"},
      {"measurement": "N-palmitoyl alanine level, Mean", "value": "3.64E-12"},
      {"measurement": "N-palmitoyl ethanolamine level, Mean", "value": "4.41E-11"},
      {"measurement": "N-palmitoyl glycine level, Mean", "value": "1.22E-12"},
      {"measurement": "N-palmitoyl leucine level, Mean", "value": "2.6E-12"},
      {"measurement": "N-palmitoyl methionine level, Mean", "value": "1.73E-12"},
      {"measurement": "N-palmitoyl phenylalanine level, Mean", "value": "4.39E-13"},
      {"measurement": "N-palmitoyl proline level, Mean", "value": "BDL"},
      {"measurement": "N-palmitoyl serine level, Mean", "value": "1.33E-11"},
      {"measurement": "N-palmitoyl tryptophan level, Mean", "value": "BDL"},
      {"measurement": "N-palmitoyl tyrosine level, Mean", "value": "9.98E-13"},
      {"measurement": "N-palmitoyl valine level, Mean", "value": "1.27E-13"},
      {"measurement": "N-stearoyl GABA level, Mean", "value": "1.57E-11"},
      {"measurement": "N-stearoyl alanine level, Mean", "value": "2.38E-12"},
      {"measurement": "N-stearoyl ethanolamine level, Mean", "value": "1.7E-11"},
      {"measurement": "N-stearoyl glycine level, Mean", "value": "2.12E-12"},
      {"measurement": "N-stearoyl leucine level, Mean", "value": "2.18E-12"},
      {"measurement": "N-stearoyl phenylalanine level, Mean", "value": "3.31E-13"},
      {"measurement": "N-stearoyl proline level, Mean", "value": "BDL"},
      {"measurement": "N-stearoyl serine level, Mean", "value": "2.78E-11"},
      {"measurement": "N-stearoyl serine: Direction (relative to Veh)", "value": "↓"},
      {"measurement": "N-stearoyl serine: Magnitude (x Veh level)", "value": 0.85, "unit": "x Veh level"},
      {"measurement": "N-stearoyl tryptophan level, Mean", "value": "BDL"},
      {"measurement": "N-stearoyl tyrosine level, Mean", "value": "1.97E-13"},
      {"measurement": "Oleic acid level, Mean", "value": "1.43E-09"},
      {"measurement": "PGE2: Direction (relative to Veh)", "value": "↑"},
      {"measurement": "PGE2: Magnitude (x Veh level)", "value": 1.18, "unit": "x Veh level"},
      {"measurement": "PGE2 level, Mean", "value": "3.37E-10"},
      {"measurement": "PGF2α: Direction (relative to Veh)", "value": "↑"},
      {"measurement": "PGF2α: Magnitude (x Veh level)", "value": 1.30, "unit": "x Veh level"},
      {"measurement": "PhosphoLEA level, Mean", "value": "1.8E-11"}
    ]}
  ]
}
